# Reference: patent publication US20230144436A1, “MUSCLE TARGETING COMPLEXES AND USES THEREOF FOR TREATING MYOTONIC DYSTROPHY” (Dyne Therapeutics, Inc., priority 2020, published 2023)
# Tested on: DMPK
# Experiment: DMPK knockdown by transfected antisense oligonucleotides in DM1 C15 myotubes at 0.5 nM and 50 nM
# Format: cell-based
# Conditions: 72 hours; for Normalized DMPK Remaining: relative to vehicle control = 1.00
# Procedure: Two hundred and thirty-six oligonucleotides for targeting DMPK were generated using in silico analysis. Each individual oligonucleotide was evaluated for their ability to target DMPK in cellulo at two doses—0.5 nM (low dose) and 50 nM (high dose).
# Briefly, DM1 C15 immortalized myoblasts were cultured in T-75 flasks until near confluency (˜80% confluent). Myoblasts were then disrupted with trypsin and seeded into 96-well microplates at a density of 50,000 cells/well. Cells were allowed to recover overnight before the growth media was washed out and replaced with a no-serum media to induce differentiation into myotubes. Differentiation proceeded for seven days prior to treatment with DMPK-targeting oligonucleotides.
# On day seven following induction of differentiation, DM1 C15 myotubes were transfected with an individual oligonucleotide using 0.3 μL of Lipofectamine MessengerMax per well. All oligonucleotides were tested at both 0.5 nM and 50 nM final concentrations in biological triplicates. After treatment with oligonucleotides, cells were incubated for 72 hours prior to being harvested for total RNA. cDNA was synthesized from the total RNA extracts and qPCR was performed to determine expression levels of DMPK in technical quadruplicate. All qPCR data were analyzed using a traditional […] method and were normalized to a plate-based negative control that comprised cells treated with vehicle control (0.3 μL/well Lipofectamine MessengerMax without any oligonucleotide). Results from these experiments are shown in Table 10. ‘Normalized DMPK Remaining’ for each antisense oligonucleotide in Table 10 refers to the expression level of DMPK in cell treated with said antisense oligonucleotide relative to the negative control that comprised cells treated with vehicle control (wherein the expression level of the negative control has been normalized to equal 1.00)
# [1] = 0.5 nM oligonucleotide, qPCR, relative to vehicle control
# [2] = 50 nM oligonucleotide, qPCR, relative to vehicle control
Substance,Percent DMPK Reduction (0.5 nM oligonucleotide),Normalized DMPK Remaining (0.5 nM oligonucleotide),Percent DMPK Reduction (50 nM oligonucleotide),Normalized DMPK Remaining (50 nM oligonucleotide),Percent DMPK Reduction [1],"Normalized DMPK Remaining (0.5 nM oligonucleotide, qPCR)",Percent DMPK Reduction [2],"Normalized DMPK Remaining (50 nM oligonucleotide, qPCR)"
457 (GGGCCUUUUAUUCGCGAGGG; chemistry not given here) [compound 457],5.11%,0.95,50.65%,0.49,–,–,–,–
392 (UGCCUGCAGCAACUCCAUCC; chemistry not given here) [compound 392],13.99%,0.86,49.75%,0.50,–,–,–,–
405 (CUUUGGGCAGAUGGAGGGCC; chemistry not given here) [compound 405],28.06%,0.72,67.50%,0.33,–,–,–,–
448 (UUGGGCAGAUGGAGGGCCUU; chemistry not given here) [compound 448],19.08%,0.81,78.39%,0.22,–,–,–,–
473 (CUUGUAGUGGACGAUCUUGC; chemistry not given here) [compound 473],24.09%,0.76,89.16%,0.11,–,–,–,–
258 (AACUUGCUCAGCAGUGUCAG; chemistry not given here) [compound 258],–,–,–,–,19.81%,0.80,52.64%,0.47
308 (UGACAAUCUCCGCCAGGUAG; chemistry not given here) [compound 308],–,–,–,–,38.86%,0.61,66.56%,0.33
430 (GUCUAUGGCCAUGACAAUCU; chemistry not given here) [compound 430],-11.00%,1.11,73.11%,0.27,–,–,–,–
411 (UUGCCCAUCCACGUCAGGGC; chemistry not given here) [compound 411],22.23%,0.78,67.15%,0.33,–,–,–,–
274 (UGCCCAUCCACGUCAGGGCC; chemistry not given here) [compound 274],–,–,–,–,13.63%,0.86,33.09%,0.67
295 (CCUUGUAGUGGACGAUCUUG; chemistry not given here) [compound 295],–,–,–,–,17.20%,0.83,65.91%,0.34
409 (GGCUUGCUGCCUUCCCAGGC; chemistry not given here) [compound 409],-6.32%,1.06,48.15%,0.52,–,–,–,–
318 (AGGAGCAGGGAAAGCGCCUC; chemistry not given here) [compound 318],–,–,–,–,33.24%,0.67,62.37%,0.38
438 (UCUAGGGUUCAGGGAGCGCG; chemistry not given here) [compound 438],21.81%,0.78,83.22%,0.17,–,–,–,–
312 (GUCUCAGUGCAUCCAAAACG; chemistry not given here) [compound 312],–,–,–,–,18.85%,0.81,46.13%,0.54
390 (UCCUGCAACUGCCGGACGUG; chemistry not given here) [compound 390],16.06%,0.84,44.61%,0.55,–,–,–,–
253 (UGCUCAGCAGUGUCAGCAGG; chemistry not given here) [compound 253],–,–,–,–,27.08%,0.73,65.78%,0.34
343 (CGUAGUUGACUGGCGAAGUU; chemistry not given here) [compound 343],–,–,–,–,25.26%,0.75,61.52%,0.38

Substance,Percent DMPK Reduction (0.5 nM oligonucleotide),Normalized DMPK Remaining (0.5 nM oligonucleotide),Percent DMPK Reduction (50 nM oligonucleotide),Normalized DMPK Remaining (50 nM oligonucleotide),Percent DMPK Reduction [1],"Normalized DMPK Remaining (0.5 nM oligonucleotide, qPCR)",Percent DMPK Reduction [2],"Normalized DMPK Remaining (50 nM oligonucleotide, qPCR)"
356 (CUGCCUGCAGCAACUCCAUC; chemistry not given here) [compound 356],–,–,–,–,23.10%,0.77,46.69%,0.53
336 (GAUGUUGUCGGGUUUGAUGU; chemistry not given here) [compound 336],–,–,–,–,10.06%,0.90,42.42%,0.58
315 (GCUCCUGGGCGGCGCCAGAC; chemistry not given here) [compound 315],–,–,–,–,8.52%,0.91,78.79%,0.21
406 (ACAGGUAGUUCUCAUCCUGG; chemistry not given here) [compound 406],20.51%,0.79,85.36%,0.15,–,–,–,–
276 (UGUGCACGUAGCCAAGCCGG; chemistry not given here) [compound 276],–,–,–,–,24.74%,0.75,75.09%,0.25
408 (UCGGGUUUGAUGUCCCUGUG; chemistry not given here) [compound 408],22.49%,0.78,57.16%,0.43,–,–,–,–
481 (GGGAAAGCGCCUCCGAUAGG; chemistry not given here) [compound 481],10.02%,0.90,76.79%,0.23,–,–,–,–
340 (GUACAGGUAGUUCUCAUCCU; chemistry not given here) [compound 340],–,–,–,–,31.52%,0.68,65.57%,0.34
349 (UUUGCCCAUCCACGUCAGGG; chemistry not given here) [compound 349],–,–,–,–,32.79%,0.67,59.36%,0.41
429 (GCGGUCCAGCAGGAUGUUGU; chemistry not given here) [compound 429],38.84%,0.61,83.64%,0.16,–,–,–,–
248 (CAAACUUGCUCAGCAGUGUC; chemistry not given here) [compound 248],–,–,–,–,31.45%,0.69,53.93%,0.46
261 (GAAGUCGGCCAGGCGGAUGU; chemistry not given here) [compound 261],–,–,–,–,18.36%,0.82,44.04%,0.56
331 (GGCCUCAGCCUGGCCGAAAG; chemistry not given here) [compound 331],–,–,–,–,14.49%,0.86,64.80%,0.35
436 (CCACUUCAGCUGUUUCAUCC; chemistry not given here) [compound 436],22.40%,0.78,64.20%,0.36,–,–,–,–
365 (UCUCAGUGCAUCCAAAACGU; chemistry not given here) [compound 365],–,–,–,–,10.88%,0.89,51.34%,0.49
472 (AAGGGAUGUGUCCGGAAGUC; chemistry not given here) [compound 472],10.37%,0.90,73.52%,0.26,–,–,–,–
421 (GCGAAUACACCCAGCGCCCA; chemistry not given here) [compound 421],6.94%,0.93,69.72%,0.30,–,–,–,–
